Measured values as given in ChEMBL document CHEMBL6127103, “Benzoxaborinine, New Chemotype for Carbonic Anhydrase Inhibition: Ex Novo Synthesis, Crystallography, In Silico Studies, and Anti-Melanoma Cell Line Activity” (J Med Chem, 2024).
Active and inactive are the calls of the source. The rule behind the calls is not given here.

Assays:
Carbonic anhydrase 12 [1] = biological target: T1, Carbonic anhydrase 12 (Homo sapiens, UniProt O43570); assay: Inhibition of human carbonic anhydrase XII assessed as inhibition constant incubated for 15 mins by stopped-flow carbon dioxide hydration assay
Carbonic anhydrase 2 [2] = biological target: T2, Carbonic anhydrase 2 (Homo sapiens, UniProt P00918); assay: Inhibition of human carbonic anhydrase II assessed as inhibition constant incubated for 15 mins by stopped-flow carbon dioxide hydration assay
Carbonic anhydrase 9 [3] = biological target: T3, Carbonic anhydrase 9 (Homo sapiens, UniProt Q16790)
Description: Inhibition of human carbonic anhydrase IX assessed as inhibition constant incubated for 15 mins by stopped-flow carbon dioxide hydration assay

Carbonic anhydrase 1 [4] = biological target: T4, Carbonic anhydrase 1 (Homo sapiens, UniProt P00915); assay: Inhibition of human carbonic anhydrase I assessed as inhibition constant incubated for 15 mins by stopped-flow carbon dioxide hydration assay
A-375 [5] = assay: Anti-melanoma activity against human A-375 cells assessed as inhibition of cell proliferation at 10 to 300 uM incubated for 72 hrs by MACSQUant analyzer; format: functional, cell-based; details: dose 10-300 µM
SK-MEL-2 [6] = assay: Anti-melanoma activity against human SK-MEL-2 cells assessed as inhibition of cell proliferation at 10 to 300 uM incubated for 72 hrs by MACSQUant analyzer; format: functional, cell-based; details: dose 10-300 µM
A2058 [7] = assay: Anti-melanoma activity against human A2058 cells assessed as inhibition of cell proliferation at 10 to 300 uM incubated for 72 hrs by MACSQUant analyzer; format: functional, cell-based; details: dose 10-300 µM
A-375 [8] = assay: Anti-melanoma activity against human A-375 cells assessed as inhibition of cell proliferation incubated for 72 hrs by MACSQUant analyzer; format: functional, cell-based; details: A-375, 72 h
Carbonic anhydrase 12 [9] = biological target: T1, Carbonic anhydrase 12; assay: Inhibition of human carbonic anhydrase XII catalytic domain assessed as inhibition constant incubated for 15 to 360 mins by stopped-flow CO2 hydration assay
Carbonic anhydrase 9 [10] = biological target: T3, Carbonic anhydrase 9; assay: Inhibition of human carbonic anhydrase IX catalytic domain assessed as inhibition constant incubated for 15 to 360 mins by stopped-flow CO2 hydration assay
Carbonic anhydrase 1 [11] = biological target: T4, Carbonic anhydrase 1; assay: Inhibition of human carbonic anhydrase I assessed as inhibition constant incubated for 15 to 360 mins by stopped-flow CO2 hydration assay
A-375 [12] = assay: Anti-melanoma activity against human A-375 cells assessed as inhibition of cell proliferation at 100 uM incubated for 72 hrs by MACSQUant analyzer; format: functional, cell-based
SK-MEL-2 [13] = assay: Anti-melanoma activity against human SK-MEL-2 cells assessed as inhibition of cell proliferation at 100 uM incubated for 72 hrs by MACSQUant analyzer; format: functional, cell-based
A2058 [14] = assay: Anti-melanoma activity against human A2058 cells assessed as inhibition of cell proliferation at 100 uM incubated for 72 hrs by MACSQUant analyzer; format: functional, cell-based
Carbonic anhydrase 2 [15] = biological target: T2, Carbonic anhydrase 2; assay: Inhibition of human carbonic anhydrase II assessed as inhibition constant incubated for 15 to 360 mins by stopped-flow CO2 hydration assay
A-375 [16] = assay: Anti-melanoma activity against human A-375 cells assessed as inhibition of cell proliferation at 200 uM incubated for 72 hrs by MACSQUant analyzer; format: functional, cell-based
A2058 [17] = assay: Anti-melanoma activity against human A2058 cells assessed as inhibition of cell proliferation at 200 uM incubated for 72 hrs by MACSQUant analyzer; format: functional, cell-based
SK-MEL-2 [18] = assay: Anti-melanoma activity against human SK-MEL-2 cells assessed as inhibition of cell proliferation at 200 uM incubated for 72 hrs by MACSQUant analyzer; format: functional, cell-based

T4 sequence (P00915 whole entry): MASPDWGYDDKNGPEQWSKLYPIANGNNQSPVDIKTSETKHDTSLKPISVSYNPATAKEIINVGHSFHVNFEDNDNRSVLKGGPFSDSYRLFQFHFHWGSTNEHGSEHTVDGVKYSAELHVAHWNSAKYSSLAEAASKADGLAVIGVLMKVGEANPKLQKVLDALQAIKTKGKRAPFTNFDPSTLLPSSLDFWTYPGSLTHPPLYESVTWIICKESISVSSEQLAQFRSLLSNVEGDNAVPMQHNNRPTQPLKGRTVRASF
T1 sequence (O43570 whole entry): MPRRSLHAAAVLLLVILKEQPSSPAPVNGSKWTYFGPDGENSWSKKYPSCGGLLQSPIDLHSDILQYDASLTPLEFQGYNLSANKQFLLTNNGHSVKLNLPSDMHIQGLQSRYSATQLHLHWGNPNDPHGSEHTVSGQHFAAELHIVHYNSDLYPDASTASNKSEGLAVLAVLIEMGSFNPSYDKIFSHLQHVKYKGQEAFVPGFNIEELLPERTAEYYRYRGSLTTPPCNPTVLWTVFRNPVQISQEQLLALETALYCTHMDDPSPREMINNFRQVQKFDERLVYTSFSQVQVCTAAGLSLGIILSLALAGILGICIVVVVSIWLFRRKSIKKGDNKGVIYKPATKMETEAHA

Row | Ki (Carbonic anhydrase 12 [1]) [nM] | Ki (Carbonic anhydrase 2 [2]) [nM] | Ki (Carbonic anhydrase 9 [3]) [nM] | Ki (Carbonic anhydrase 1 [4]) [µM] | Ki (Carbonic anhydrase 12 [9]) [nM] | Ki (Carbonic anhydrase 9 [10]) [nM] | SMILES | also measured
1 | 754 | 1950 | 9840 | 3.87 | – | – | OB1OCCc2ccccc21 [BENZOXABORIN] | –
2 | 191 | 295 | 312 | 0.798 | – | – | OB1OCCc2ccc(NC(=S)Nc3ccccc3)cc21 | –
3 | 46.4 | 452 | 63.2 | 0.523 | – | – | O=[N+]([O-])c1ccc(NC(=S)Nc2ccc3c(c2)B(O)OCC3)cc1 | –
4 | 210 | 262 | 268 | 19 | – | – | O=C(Nc1ccccc1)Nc1ccc2c(c1)B(O)OCC2 | –
5 | 2310 | 2920 | 45 | > 100 | – | – | Nc1ccc2c(c1)B(O)OCC2 | –
6 | 80.7 | 112 | 163 | 0.637 | – | – | O=C(NCc1ccccc1)Nc1ccc2c(c1)B(O)OCC2 | Activity (A-375 [5]): Active; Activity (SK-MEL-2 [6]): Active; Activity (A2058 [7]): Active; IC50 (A-375 [8]): 31.6 µM
7 | 920 | 983 | 25 | 44.5 | – | – | O=[N+]([O-])c1ccc2c(c1)B(O)OCC2 | –
8 | – | – | – | – | > 50000 | > 50000 | OB1OCc2ccccc21 [BENZOXABOROLE] | –
9 | 278 | 85.9 | 451 | 3.49 | – | – | O=C(Nc1ccc(F)cc1)Nc1ccc2c(c1)B(O)OCC2 | Activity (A-375 [12]): Active; Activity (SK-MEL-2 [13]): Active; Activity (A2058 [14]): Active; IC50 (A-375 [8]): 132 µM
10 | – | – | – | – | 640 | 813 | Nc1ccc2c(c1)B(O)OC2 | –
11 | 151 | 434 | 88.5 | 1.59 | – | – | OB1OCCc2ccc(NC(=S)Nc3ccc(F)cc3)cc21 | –
12 | 69 | 41.7 | 52.8 | 0.614 | – | – | OB1OCCc2ccc(NC(=S)NCc3ccccc3)cc21 | Activity (A-375 [5]): Active; Activity (SK-MEL-2 [6]): Active; Activity (A2058 [7]): Active; IC50 (A-375 [8]): 126 µM
13 | – | – | – | – | 92 | 94 | O=[N+]([O-])c1ccc2c(c1)B(O)OC2 | –

The remaining lines, values behind:

Row | SMILES | Ki (Carbonic anhydrase 12 [1]) [nM] | Ki (Carbonic anhydrase 2 [2]) [nM] | Ki (Carbonic anhydrase 9 [3]) [nM] | Ki (Carbonic anhydrase 1 [4]) [µM] | Ki (Carbonic anhydrase 12 [9]) [nM] | Ki (Carbonic anhydrase 9 [10]) [nM] | also measured
14 | O=C(Nc1ccc(C(F)(F)F)cc1)Nc1ccc2c(c1)B(O)OCC2 | 354 | 306 | 139 | 20.7 | – | – | –
15 | O=C(Nc1ccc(F)cc1)Nc1ccc2c(c1)B(O)OC2 | – | – | – | – | 175 | 843 | –
16 | OB1OCc2ccc(NC(=S)NCc3ccccc3)cc21 | – | – | – | – | 42 | 610 | Ki (Carbonic anhydrase 1 [11]): 380 nM
17 | O=C(NCc1ccccc1)Nc1ccc2c(c1)B(O)OC2 | – | – | – | – | 184 | 925 | –
18 | OB1OCCc2ccc(NC(=S)Nc3ccc(C(F)(F)F)cc3)cc21 | 82 | 44.9 | 349 | 16.8 | – | – | –
19 | O=C(Nc1ccccc1)Nc1ccc2c(c1)B(O)OC2 | – | – | – | – | 240 | 1060 | –
20 | O=C(Nc1ccc(C(F)(F)F)cc1)Nc1ccc2c(c1)B(O)OC2 | – | – | – | – | 93 | 845 | –
21 | OB1OCc2ccc(NC(=S)Nc3ccccc3)cc21 | – | – | – | – | 76 | 436 | Ki (Carbonic anhydrase 2 [15]): 1150 nM; Ki (Carbonic anhydrase 1 [11]): 548 nM
22 | NS(=O)(=O)c1ccc(NC(=O)Nc2ccc(F)cc2)cc1 [SLC-0111] | – | – | – | – | – | – | Activity (A-375 [16]): Active; Activity (A2058 [17]): Active; Activity (SK-MEL-2 [18]): Active; IC50 (A-375 [8]): 111 µM
23 | OB1OCc2ccc(NC(=S)Nc3ccc(F)cc3)cc21 | – | – | – | – | 89 | 336 | –
